Structures can show the parent of a compound that is named as a salt.
Tested on: Long-Evans male rats
Assay: IP administration of compounds in fasted Long-Evans male rats, 2 hr food intake
Assay type: in vivo
Conditions: Rattus norvegicus; male Long Evans rats fasted 18-20 hr; 30 mg/kg (ip) in 2% tween; food given after 30 min, weighed 2 hr later; vs vehicle; read-out: inhibition of feeding (2 hr food intake)
Experimental: Protocol for IP Administration of Compounds in Fasted Long-Evans Male Rats
Male Long Evans rats (85-100 g)were obtained from Harlan (Indianapolis, Ind.) and were given at least a one week acclimation period to Ambients animal care facilities. Animals were individually housed and were provided ad libitum food and water. For testing, rats were fasted for 18-20 hr (overnight) prior to the start of the experiment. On the test day, test compounds or vehicle was administered via the intraperitoneal (i.p.) route of administration. Test compounds were suspended in a 2% tween solution; the 2% tween solution was used as the vehicle treatment (control group). Group sizes for each treatment were 6-8 animals. After 30 min, premeasured food was placed into the cages. Two hours later, the food was weighed again. The difference between 2 hr weight and the premeasured weight was taken as 2 hr food intake.
In the case of `Cc1nc(N2CCCCC2)c2[nH]c(-c3cccc(Cl)c3)cc2n1` [Example 70e, 6-(3-Chlorophenyl)-2-methyl-4-piperidylpyrrolo[3,2-d]pyrimidine Hydrochloride Monohydrate], the inhibition in vivo at 30 mg/kg is reported as ≥ 10%.
In the case of `Cc1nc(N2CCCCC2)c2[nH]c(-c3ccccc3)c(C)c2n1` [Example 90, 2,7-Dimethyl-6-phenyl-4-piperidylpyrrolo[3,2-d]pyrimidine Hydrochloride Monohydrate], the inhibition in vivo at 30 mg/kg is reported as ≥ 10%.
With `Cc1nc(N2CCCCC2)c2[nH]c(-c3ccccc3F)cc2n1` [Example 102, 6-(2-Fluorophenyl)-2-methyl-4-piperidylpyrrolo[3,2-d]pyrimidine Hydrochloride Monohydrate] the inhibition in vivo at 30 mg/kg was ≥ 10%.
With `Cc1nc(N2CCCCC2)c2[nH]c(C)cc2n1` [Example 104, 2,6-Dimethyl-4-piperidylpyrrolo[3,2-d]pyrimidine Hydrochloride Hydrate] the inhibition in vivo at 30 mg/kg was ≥ 10%.
For `COc1ccc(-c2cc3nc(C)nc(N4CCCCC4)c3[nH]2)cc1OC` [Example 126, 1,2-Dimethoxy-4-(2-methyl-4-piperidylpyrrolo[4,5-d]pyrimidin-6-yl)benzene Hydrochloride Hydrate], the inhibition in vivo at 30 mg/kg was ≥ 10%.
In the case of `Cc1nc(N2CCCCC2)c2[nH]c(-c3ccc4c(c3)Cc3ccccc3-4)cc2n1` [Example 127, 6-Fluoren-2-yl-2-methyl-4-piperidylpyrrolo[3,2-d]pyrimidine Hydrochloride Hydrate], the inhibition in vivo at 30 mg/kg is reported as ≥ 10%.
For `Cc1nc(N2CCCCC2)c2[nH]c(-c3ccc(F)cc3)c(C)c2n1` [Example 134, 6-(4-Fluorophenyl)-2,7-dimethyl-4-piperidylpyrrolo[3,2-d]pyrimidine Hydrochloride Hydrate], the inhibition in vivo at 30 mg/kg was ≥ 10%.
For `Cc1nc(N2CCCCC2)c2[nH]c(-c3ccc(O)cc3)c(C)c2n1` [Example 137, 4-[2,7-Dimethyl-4-piperidylpyrrolo[4,5-d]pyrimidin-6-yl]phenol Hydrochloride Hydrate], the inhibition in vivo at 30 mg/kg was ≥ 10%.
For `Cc1nc(N2CCOCC2)c2[nH]c(-c3ccc(F)c(F)c3)cc2n1` [Example 141, 4-[6-(3,4-Difluorophenyl)-2-methylpyrrolo[2,3-e]pyrimidin-4-yl]morpholine Hydrochloride], the inhibition in vivo at 30 mg/kg was ≥ 10%.
For `Cc1nc(N2CCCCC2)c2[nH]c(-c3ccc(S(C)(=O)=O)cc3)cc2n1` [Example 142, 1-[2-Methyl-4-piperidylpyrrolo[4,5-d]pyrimidin-6-yl]-4-(methylsulfonyl)benzene Hydrochloride Monohydrate], the inhibition in vivo at 30 mg/kg was ≥ 10%.
In the case of `COc1cc(-c2cc3nc(C)nc(N4CCCCC4)c3[nH]2)cc(OC)c1OC.Cl` [Example 143, 1,2,3-Trimethoxy-5-[2-methyl-4-piperidylpyrrolo[4,5-d]pyrimidin-6-yl]benzene Hydrochloride], the inhibition in vivo at 30 mg/kg is reported as ≥ 10%.
For `CCCCc1cc2nc(C)nc(N3CCCCC3)c2[nH]1` [Example 148, 6-Butyl-2-methyl-4-piperidylpyrrolo[3,2-d]pyrimidine Hydrochloride], the inhibition in vivo at 30 mg/kg was ≥ 10%.
In the case of `CC(=O)c1ccc(-c2cc3nc(C)nc(N4CCCCC4)c3[nH]2)cc1` [Example 150, 1-[4-(2-Methyl-4-piperidylpyrrolo[4,5-d]pyrimidin-6-yl)phenyl]ethan-1-one Hydrochloride Hydrate], the inhibition in vivo at 30 mg/kg is reported as ≥ 10%.
For `Cc1nc(N2CCCCC2)c2[nH]c(-c3ccc4ccccc4c3)cc2n1` [Example 160, 2-Methyl-6-(2-naphthyl)-4-piperidylpyrrolo[3,2-d]pyrimidine Hydrochloride Hydrate], the inhibition in vivo at 30 mg/kg was ≥ 10%.
For `Cc1nc(N2CCCCC2)c2[nH]c(CCc3ccccc3)cc2n1` [Example 168, 2-Methyl-6-(2-phenylethyl)-4-piperidylpyrrolo[3,2-d]pyrimidine Hydrochloride Hydrate], the inhibition in vivo at 30 mg/kg was ≥ 10%.
In the case of `Cc1nc(N2CC=CC2)c2[nH]c(-c3ccc(Cl)c(Cl)c3)cc2n1` [Example 200d, 6-(3,4-Dichlorophenyl)-2-methyl-4-(3-pyrrolinyl)pyrrolo[3,2-d]pyrimidine Hydrochloride Hydrate], the inhibition in vivo at 30 mg/kg is reported as ≥ 10%.
In the case of `CCc1nc(N2CCc3ccccc3C2)c2[nH]c(-c3ccccc3)cc2n1` [Example 202, 2-Ethyl-6-phenyl-4-(2-1,2,3,4-tetrahydroisoquinolyl)pyrrolo[3,2-d]pyrimidine Hydrochloride Monohydrate], the inhibition in vivo at 30 mg/kg is reported as ≥ 10%.
In the case of `CN(C)c1nc(N2CCCCC2)c2[nH]c(-c3ccccc3)cc2n1` [Example 203, Hydrochloride Hydrate], the inhibition in vivo at 30 mg/kg is reported as ≥ 10%.
In the case of `Fc1ccc(-c2cc3nc(C4CC4)nc(N4CCCCC4)c3[nH]2)cc1` [Example 209c, 2-Cyclopropyl-6-(4-fluorophenyl)-4-piperidylpyrrolo[3,2-d]pyrimidine Hydrochloride Hydrate], the inhibition in vivo at 30 mg/kg is reported as ≥ 10%.
For `Cc1nc(N2CC=CC2)c2oc(-c3ccccc3)cc2n1` [Example 216c, 2-Methyl-6-phenyl-4-(3-pyrrolinyl)furano[3,2-d]pyrimidine Hydrochloride Hydrate], the inhibition in vivo at 30 mg/kg was ≥ 10%.

Tested on: Male BALB-C mice
Assay: IP administration of compounds in fasted male BALB-C mice, 2 hr food intake
Assay type: in vivo
Conditions: Mus musculus; male BALB-C mice fasted 18-20 hr; 30 mg/kg (ip) in 2% tween; food given after 30 min, weighed 2 hr later; vs vehicle; read-out: inhibition of feeding (2 hr food intake)
From the text: Protocol For IP Administration Of Compounds In Male BALB-C Mice.
Male BALB-C mice (20-25 g)were obtained from Charles Rivers (Wilmington, Mass.) and were given at least a one week acclimation period to Amgen's animal care facilities. Animals were housed 10/cage and were provided ad libitum food and water. For testing, mice were fasted for 18-20 hr (overnight) prior to the start of the experiment. On the day of the experiment, mice were removed from group housing and placed into individual cages (without food). Test compounds or vehicle was then administered via the intraperitoneal (i.p.) route of administration. Test compounds were suspended in a 2% tween solution; the 2% tween solution was used as the vehicle treatment (control group). Group sizes for each treatment were 6-8 animals. After 30 min, premeasured food was placed into the cages. Two hours later, the food was weighed again. The difference between 2 hr weight and the premeasured weight was taken as 2 hr food intake.
For `Cc1nc(N2CCCC2)c2[nH]c(-c3ccccc3)cc2n1` [Example 9, 2-Methyl-6-phenyl-4-pyrrolidinylpyrrolo[3,2-d]pyrimidine], the inhibition in vivo at 30 mg/kg was ≥ 10%.
With `c1ccc(-c2cc3ncnc(N4CCCCC4)c3[nH]2)cc1` [Example 30, 6-Phenyl-4-piperidylpyrrolo[3,2-d]pyrimidine Hydrochloride] the inhibition in vivo at 30 mg/kg was ≥ 10%.
In the case of `CCC1CCCCN1c1nc(C)nc2cc(-c3ccccc3)[nH]c12` (stereo not drawn) [Example 64, 2-Methyl-6-phenyl-4-(2-ethylpiperidinyl)pyrrolo[3,2-d]pyrimidine Hydrochloride Hydrate], the inhibition in vivo at 30 mg/kg is reported as ≥ 10%.
In the case of `CCOC(=O)c1[nH]c(-c2ccc(F)cc2)cc1N` [Example 73a, ethyl 3-amino-5-(4-fluorophenyl)pyrrole-2-carboxylate], the inhibition in vivo at 30 mg/kg is reported as ≥ 10%.
With `Cc1nc(N2CCCCC2)c2[nH]c(-c3ccccn3)cc2n1` [Example 77, 2-Methyl-4-piperidyl-6-(2-pyridyl)pyrrolo[3,2-d]pyrimidine Hydrochloride Hydrate] the inhibition in vivo at 30 mg/kg was ≥ 10%.
With `Cc1nc(N2CCCCC2)c2[nH]c(C34C[C@H]5C[C@@H](C3)C[C@@H](C4)C5)cc2n1` [Example 81d, 6-Adamantanyl-2-methyl-4-piperidylpyrrolo[3,2-d]pyrimidine Hydrochloride Monohydrate] the inhibition in vivo at 30 mg/kg was ≥ 10%.
With `CCCNc1nc(N2CCCCC2)c2[nH]c(-c3ccccc3)cc2n1` [Example 93, (6-Phenyl-4-piperidylpyrrolo[3,2-d]pyrimidine-2-yl)propylamine Hydrochloride] the inhibition in vivo at 30 mg/kg was ≥ 10%.

Tested on: not given
Assay: not given
Conditions: not given
Compound `Cc1nc(N2CCCCCC2)c2[nH]c(-c3ccccc3)cc2n1` [Example 8, 4-Homopiperidyl-2-methyl-6-phenylpyrrolo[3,2-d]pyrimidine] has a melting point of 209 to 210 °C.
`Cc1nc(NCc2ccc(C)o2)c2[nH]c(-c3ccccc3)cc2n1` [Example 17] showed a melting point of 125 to 127.5 °C.
In the case of `CC(C)c1nc(N2CCCCC2)c2[nH]c(-c3ccccc3)cc2n1` [Example 19d, 2-Isopropyl-6-phenyl-4-piperidylpyrrolo[3,2-d]pyrimidine], the melting point is reported as 269.5 to 272 °C.
For `Cc1nc(N2CCNCC2)c2[nH]c(-c3ccccc3)cc2n1` [Example 26, 2-methyl-6-phenyl-4-piperazinylpyrrolo[3,2-d]pyrimidine], the melting point was 236 °C.
For `Cc1nc(NCc2ccccc2)c2[nH]c(-c3ccccc3)cc2n1` [Example 29, (2-Methyl-6-phenylpyrrolo[2,3-e]pyrimidin-4-yl)benyzlamine], the melting point was 275 to 276.5 °C.
Work on `Cc1nc(N2CCCCC2)c2c(cc(-c3ccccc3)n2C)n1` [Example 36, 2,5-Dimethyl-6-phenyl-4-piperidylpyrrolo[3,2-d]pyrimidine] yielded a melting point of 131 to 132 °C.
`c1ccc(-c2nc(N3CCCCC3)c3[nH]c(-c4ccccc4)cc3n2)cc1` [Example 45d, 2,6-Diphenyl-4-piperidylpyrrolo[3,2-d]pyrimidine] showed a melting point of 259 to 261.5 °C.
`CC(=O)c1c(-c2ccccc2)[nH]c2c(N3CCCCC3)nc(C)nc12` [Example 49, 7-Acetyl-2-methyl-6-phenyl-4-piperidylpyrrolo[3,2-d]pyrimidine] showed a melting point of 188 to 190 °C.
With `Cc1nc(N2CCCCC2)c2[nH]c(-c3cc(C(F)(F)F)cc(C(F)(F)F)c3)cc2n1.Cl` [Example 122] the melting point was > 280 °C.
Work on `COc1cc(-c2cc3nc(C)nc(N4CCCCC4)c3[nH]2)cc(OC)c1OC.Cl` [Example 143, 1,2,3-Trimethoxy-5-[2-methyl-4-piperidylpyrrolo[4,5-d]pyrimidin-6-yl]benzene Hydrochloride] yielded a melting point of 275 to 277 °C.
For `Cc1c(-c2ccccc2)n(C)c2c(N3CCCCC3)ncnc12` [Example 155, 5,7-Dimethyl-6-phenyl-4-piperidylpyrrolo[3,2-d]pyrimidine], the melting point was 123 to 125 °C.
`Cc1nc(N2CCCCC2)c2[nH]c(-c3ccccc3)cc2[n+]1[O-]` [Example 184, 2-Methyl-6-phenyl-4-piperidylpyrrolo[3,2-d]pyrimidin-1-ol] gave a melting point of 169 to 170 °C.

— patent US6583154B1, “Compounds and methods which modulate feeding behavior and related diseases” (Amgen Inc., priority 1998, dated 2003)
